Reference: ChEMBL document CHEMBL4834431, “Design of Dimeric Bile Acid Derivatives as Potent and Selective Human NTCP Inhibitors” (J Med Chem, 2021)

The molecules below were run on Hepatitis B virus (assay: Antiviral activity against HBV infected in human HepG2-NTCP cells assessed as reduction in HBeAg secretion incubated for 24 hrs followed replacement with fresh medium and measured at day 5 post infection by ELISA).
Format: functional, organism-based

| Structure (SMILES) | IC50 [nM] |
| --- | --- |
| C[C@H](CCC(=O)NCCS(=O)(=O)O)[C@H]1CC[C@H]2[C@@H]3[C@@H](O)C[C@@H]4C[C@H](OC(=O)CCCCCC(=O)O[C@@H]5CC[C@@]6(C)[C@@H](C5)C[C@H](O)[C@@H]5[C@@H]6CC[C@]6(C)[C@@H]([C@H](C)CCC(=O)NCCS(=O)(=O)O)CC[C@@H]56)CC[C@]4(C)[C@H]3CC[C@]12C | 683 |
| C[C@H](CCC(=O)O)[C@H]1CC[C@H]2[C@@H]3[C@@H](O)C[C@@H]4C[C@H](OCCCCCO[C@@H]5CC[C@@]6(C)[C@@H](C5)C[C@H](O)[C@@H]5[C@@H]6CC[C@]6(C)[C@@H]([C@H](C)CCC(=O)NCCS(=O)(=O)O)CC[C@@H]56)CC[C@]4(C)[C@H]3CC[C@]12C | 935 |
| C[C@@H]1CCC(=O)NCCCNC(=O)CC[C@@H](C)[C@H]2CC[C@H]3[C@@H]4[C@@H](O)C[C@@H]5CC[C@@H](C[C@]5(C)[C@H]4CC[C@]23C)n2cc(nn2)CO[C@H]2CC[C@H]3C[C@H](O)[C@@H]4[C@H](CC[C@]5(C)[C@@H]1CC[C@@H]45)[C@@]3(C)C2 | 178 |
| C[C@@H]1CCC(=O)NCCCNC(=O)CC[C@@H](C)[C@H]2CC[C@H]3[C@@H]4[C@@H](O)C[C@@H]5C[C@@H](CC[C@]5(C)[C@H]4CC[C@]23C)NC(=O)CCCC(=O)N[C@@H]2CC[C@@]3(C)[C@@H](C2)C[C@H](O)[C@@H]2[C@@H]3CC[C@]3(C)[C@@H]1CC[C@@H]23 | 564 |
| C[C@@H]1CCC(=O)NCCNC(=O)CC[C@@H](C)[C@H]2CC[C@H]3[C@@H]4[C@@H](O)C[C@@H]5C[C@H](CC[C@]5(C)[C@H]4CC[C@]23C)NC(=O)CN(C)CC(=O)N[C@@H]2CC[C@@]3(C)[C@@H](C2)C[C@H](O)[C@@H]2[C@@H]3CC[C@]3(C)[C@@H]1CC[C@@H]23 | 1210 |
| C[C@H](CCC(=O)NCCS(=O)(=O)O)[C@H]1CC[C@H]2[C@@H]3[C@@H](O)C[C@@H]4CC(NCCNC5CC[C@@]6(C)[C@@H](C5)C[C@H](O)[C@@H]5[C@@H]6CC[C@]6(C)[C@@H]([C@H](C)CCC(=O)NCCS(=O)(=O)O)CC[C@@H]56)CC[C@]4(C)[C@H]3CC[C@]12C (stereo partly specified) | 7680 |
| C[C@@H]1CCC(=O)NCCCCNC(=O)CC[C@@H](C)[C@H]2CC[C@H]3[C@@H]4[C@@H](O)C[C@@H]5CC[C@@H](C[C@]5(C)[C@H]4CC[C@]23C)n2cc(nn2)CO[C@H]2CC[C@H]3C[C@H](O)[C@@H]4[C@H](CC[C@]5(C)[C@@H]1CC[C@@H]45)[C@@]3(C)C2 | 280 |
| C[C@H](CCC(=O)NCCS(=O)(=O)O)[C@H]1CC[C@H]2[C@@H]3[C@@H](O)C[C@@H]4CC(C5CC[C@@]6(C)[C@@H](C5)C[C@H](O)[C@@H]5[C@@H]6CC[C@]6(C)[C@@H]([C@H](C)CCC(=O)NCCS(=O)(=O)O)CC[C@@H]56)CC[C@]4(C)[C@H]3CC[C@]12C (stereo partly specified) | > 10000 |
| C[C@H](CCC(=O)NCCS(=O)(=O)O)[C@H]1CC[C@H]2[C@@H]3[C@@H](O)C[C@@H]4C[C@H](NCCCCCN[C@@H]5CC[C@@]6(C)[C@@H](C5)C[C@H](O)[C@@H]5[C@@H]6CC[C@]6(C)[C@@H]([C@H](C)CCC(=O)NCCS(=O)(=O)O)CC[C@@H]56)CC[C@]4(C)[C@H]3CC[C@]12C | 9650 |
| C[C@@H]1CCC(=O)NCCCCCNC(=O)CC[C@@H](C)[C@H]2CC[C@H]3[C@@H]4[C@@H](O)C[C@@H]5CC[C@@H](C[C@]5(C)[C@H]4CC[C@]23C)n2cc(nn2)CO[C@H]2CC[C@H]3C[C@H](O)[C@@H]4[C@H](CC[C@]5(C)[C@@H]1CC[C@@H]45)[C@@]3(C)C2 | 465 |
| C[C@H](CCC(=O)NCCS(=O)(=O)O)[C@H]1CC[C@H]2[C@@H]3[C@@H](O)C[C@@H]4CC(NC(=O)CCCC(=O)NC5CC[C@@]6(C)[C@@H](C5)C[C@H](O)[C@@H]5[C@@H]6CC[C@]6(C)[C@@H]([C@H](C)CCC(=O)NCCS(=O)(=O)O)CC[C@@H]56)CC[C@]4(C)[C@H]3CC[C@]12C (stereo partly specified) | 41 |
| C[C@H](CCc1cn([C@@H]2CC[C@@]3(C)[C@@H](C2)C[C@H](O)[C@@H]2[C@@H]3CC[C@]3(C)[C@@H]([C@H](C)CCC(=O)O)CC[C@@H]23)nn1)[C@H]1CC[C@H]2[C@@H]3[C@@H](O)C[C@@H]4C[C@H](O)CC[C@]4(C)[C@H]3CC[C@]12C | 25 |
| C[C@H](CCC(=O)NCCS(=O)(=O)O)[C@H]1CC[C@H]2[C@@H]3[C@@H](O)C[C@@H]4CC(O)(C5(O)CC[C@@]6(C)[C@H](C[C@H](O)[C@@H]7[C@@H]6CC[C@]6(C)[C@@H]([C@H](C)CCC(=O)NCCS(=O)(=O)O)CC[C@@H]76)C5)CC[C@]4(C)[C@H]3CC[C@]12C (stereo partly specified) | > 10000 |
| C[C@@H]1CCCOC(=O)CC[C@@H](C)[C@H]2CC[C@H]3[C@@H]4[C@@H](O)C[C@@H]5C[C@@H](CC[C@]5(C)[C@H]4CC[C@]23C)NC(=O)CCCC(=O)N[C@@H]2CC[C@@]3(C)[C@@H](C2)C[C@H](O)[C@@H]2[C@@H]3CC[C@]3(C)[C@@H]1CC[C@@H]23 | 525 |
| C[C@H](CCC(=O)NCCS(=O)(=O)O)[C@H]1CC[C@H]2[C@@H]3[C@@H](O)C[C@@H]4C[C@H](OCC#CC#CCO[C@@H]5CC[C@@]6(C)[C@@H](C5)C[C@H](O)[C@@H]5[C@@H]6CC[C@]6(C)[C@@H]([C@H](C)CCC(=O)NCCS(=O)(=O)O)CC[C@@H]56)CC[C@]4(C)[C@H]3CC[C@]12C | 1870 |
| C[C@H](CCCOC(=O)CC[C@@H](C)[C@H]1CC[C@H]2[C@@H]3[C@@H](O)C[C@@H]4C[C@H](O)CC[C@]4(C)[C@H]3CC[C@]12C)[C@H]1CC[C@H]2[C@@H]3[C@@H](O)C[C@@H]4C[C@H](O)CC[C@]4(C)[C@H]3CC[C@]12C | 2700 |
| C[C@H](CCC(=O)NCCS(=O)(=O)O)[C@H]1CC[C@H]2[C@@H]3[C@@H](O)C[C@@H]4CC(NC(=O)CC(=O)NC5CC[C@@]6(C)[C@@H](C5)C[C@H](O)[C@@H]5[C@@H]6CC[C@]6(C)[C@@H]([C@H](C)CCC(=O)NCCS(=O)(=O)O)CC[C@@H]56)CC[C@]4(C)[C@H]3CC[C@]12C (stereo partly specified) | 3570 |
| C[C@H](CCCNC(=O)CC[C@@H](C)[C@H]1CC[C@H]2[C@@H]3[C@@H](O)C[C@@H]4C[C@H](O)CC[C@]4(C)[C@H]3CC[C@]12C)[C@H]1CC[C@H]2[C@@H]3[C@@H](O)C[C@@H]4C[C@H](O)CC[C@]4(C)[C@H]3CC[C@]12C | > 10000 |
| C[C@H](CCC(=O)NCCS(=O)(=O)O)[C@H]1CC[C@H]2[C@@H]3[C@H](O)C[C@@H]4C[C@H](OC(=O)CCCC(=O)O[C@@H]5CC[C@@]6(C)[C@@H](C5)C[C@@H](O)[C@@H]5[C@@H]6CC[C@]6(C)[C@@H]([C@H](C)CCC(=O)NCCS(=O)(=O)O)CC[C@@H]56)CC[C@]4(C)[C@H]3CC[C@]12C | 187 |
| C[C@@H]1CCC(=O)OCCOC(=O)CC[C@@H](C)[C@H]2CC[C@H]3[C@@H]4[C@@H](O)C[C@@H]5C[C@@H](CC[C@]5(C)[C@H]4CC[C@]23C)NC(=O)CCCC(=O)N[C@@H]2CC[C@@]3(C)[C@@H](C2)C[C@H](O)[C@@H]2[C@@H]3CC[C@]3(C)[C@@H]1CC[C@@H]23 | 185 |
| C[C@H](CCC(=O)NCCS(=O)(=O)O)[C@H]1CC[C@H]2[C@@H]3[C@@H](O)C[C@@H]4C/C(=C5\CC[C@@]6(C)[C@@H](C5)C[C@H](O)[C@@H]5[C@@H]6CC[C@]6(C)[C@@H]([C@H](C)CCC(=O)NCCS(=O)(=O)O)CC[C@@H]56)CC[C@]4(C)[C@H]3CC[C@]12C | > 10000 |
| C[C@H](CCC(=O)O[C@@H]1CC[C@@]2(C)[C@@H](C1)C[C@H](O)[C@@H]1[C@@H]2CC[C@]2(C)[C@@H]([C@H](C)CCC(=O)O[C@@H]3CC[C@@]4(C)[C@@H](C3)C[C@H](O)[C@@H]3[C@@H]4CC[C@]4(C)[C@@H]([C@H](C)CCC(=O)NCCS(=O)(=O)O)CC[C@@H]34)CC[C@@H]12)[C@H]1CC[C@H]2[C@@H]3[C@@H](O)C[C@@H]4C[C@H](O)CC[C@]4(C)[C@H]3CC[C@]12C | 2650 |
| C[C@@H]1CCC(=O)NCCCCCCNC(=O)CC[C@@H](C)[C@H]2CC[C@H]3[C@@H]4[C@@H](O)C[C@@H]5CC[C@@H](C[C@]5(C)[C@H]4CC[C@]23C)n2cc(nn2)CO[C@H]2CC[C@H]3C[C@H](O)[C@@H]4[C@H](CC[C@]5(C)[C@@H]1CC[C@@H]45)[C@@]3(C)C2 | 210 |
| C[C@H](CCC(=O)NCCS(=O)(=O)O)[C@H]1CC[C@H]2[C@@H]3CC[C@@H]4C[C@H](OC(=O)CCCC(=O)O[C@@H]5CC[C@@]6(C)[C@H](CC[C@@H]7[C@@H]6CC[C@]6(C)[C@@H]([C@H](C)CCC(=O)NCCS(=O)(=O)O)CC[C@@H]76)C5)CC[C@]4(C)[C@H]3CC[C@]12C | 3240 |
| C[C@H](CCC(=O)O)[C@H]1CC[C@H]2[C@@H]3[C@@H](O)C[C@@H]4C[C@H](NC(=O)CCCC(=O)N[C@@H]5CC[C@@]6(C)[C@@H](C5)C[C@H](O)[C@@H]5[C@@H]6CC[C@]6(C)[C@@H]([C@H](C)CCC(=O)NCCS(=O)(=O)O)CC[C@@H]56)CC[C@]4(C)[C@H]3CC[C@]12C | 93 |
| C[C@H](CCC(=O)O)[C@H]1CC[C@H]2[C@@H]3[C@@H](O)C[C@@H]4CC(NC(=O)CCCC(=O)NC5CC[C@@]6(C)[C@@H](C5)C[C@H](O)[C@@H]5[C@@H]6CC[C@]6(C)[C@@H]([C@H](C)CCC(=O)O)CC[C@@H]56)CC[C@]4(C)[C@H]3CC[C@]12C (stereo partly specified) | 3570 |
